# PubChem BioAssay (NCI)
#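 Test compounds were applied to cells in 96-well plates for 48 hours at 5 doses. Abbreviation: GI50, concentration required for 50% inhibition of growth. Definition used: TGI = concentration required for complete inhibition of growth.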
# Experiments:
# Experiment in all cases: NCI tumour cell line growth inhibition, 48 h
# UO-31 renal = tested on: UO-31 renal
# DU-145 prostate = tested on: DU-145 prostate
# OVCAR-4 ovarian = tested on: OVCAR-4 ovarian
# A498 renal = tested on: A498 renal
# MCF7 breast = tested on: MCF7 breast
# COLO 205 colon = tested on: COLO 205 colon
# BT-549 breast = tested on: BT-549 breast
# HS 578T breast = tested on: HS 578T breast
# TK-10 renal = tested on: TK-10 renal
# RPMI-8226 leukemia = tested on: RPMI-8226 leukemia
# SN12C renal = tested on: SN12C renal
# MOLT-4 leukemia = tested on: MOLT-4 leukemia
# MDA-MB-435 = tested on: MDA-MB-435
# NCI-H522 lung = tested on: NCI-H522 lung
# A549 NSCLC = tested on: A549 NSCLC
# SF-539 CNS = tested on: SF-539 CNS
# LOX IMVI melanoma = tested on: LOX IMVI melanoma
# ACHN renal = tested on: ACHN renal
# SK-MEL-2 melanoma = tested on: SK-MEL-2 melanoma
# K-562 leukemia = tested on: K-562 leukemia
# HCT-15 colon = tested on: HCT-15 colon
# KM12 colon = tested on: KM12 colon
# HOP-92 NSCLC = tested on: HOP-92 NSCLC
# NCI-H23 lung = tested on: NCI-H23 lung
# HCC-2998 colon = tested on: HCC-2998 colon
# SK-OV-3 ovarian = tested on: SK-OV-3 ovarian
# SNB-75 CNS = tested on: SNB-75 CNS
# SW-620 colon = tested on: SW-620 colon
# NCI/ADR-RES ovarian = tested on: NCI/ADR-RES ovarian
# M14 melanoma = tested on: M14 melanoma
# HOP-62 NSCLC = tested on: HOP-62 NSCLC
# SK-MEL-5 melanoma = tested on: SK-MEL-5 melanoma
# 786-0 renal = tested on: 786-0 renal
# UACC-62 melanoma = tested on: UACC-62 melanoma
# NCI-H226 lung = tested on: NCI-H226 lung
# MALME-3M melanoma = tested on: MALME-3M melanoma
# HT29 colon = tested on: HT29 colon
# EKVX NSCLC = tested on: EKVX NSCLC
# OVCAR-3 ovarian = tested on: OVCAR-3 ovarian
# OVCAR-8 ovarian = tested on: OVCAR-8 ovarian
# SR leukemia = tested on: SR leukemia
# U251 CNS = tested on: U251 CNS
# T-47D breast = tested on: T-47D breast
# RXF 393 renal = tested on: RXF 393 renal
# NCI-H460 lung = tested on: NCI-H460 lung
# MDA-MB-231 breast = tested on: MDA-MB-231 breast
# CAKI-1 renal = tested on: CAKI-1 renal
# OVCAR-5 ovarian = tested on: OVCAR-5 ovarian
# PC-3 prostate = tested on: PC-3 prostate
# HL-60(TB) leukemia = tested on: HL-60(TB) leukemia
# SF-268 CNS = tested on: SF-268 CNS
# HCT-116 colon = tested on: HCT-116 colon
# UACC-257 melanoma = tested on: UACC-257 melanoma
# SF-295 CNS = tested on: SF-295 CNS
# IGROV1 ovarian = tested on: IGROV1 ovarian
# SK-MEL-28 melanoma = tested on: SK-MEL-28 melanoma
# SNB-19 CNS = tested on: SNB-19 CNS
# CCRF-CEM leukemia = tested on: CCRF-CEM leukemia
structure (smiles),measurement,setting,value
c1ccc(-c2n(Cc3ccc4ccccc4n3)cc[n+]2Cc2ccc3ccccc3c2)cc1,GI50,UO-31 renal,2.93 µM
same,TGI,UO-31 renal,13.2 µM
same,GI50,DU-145 prostate,2.7 µM
same,TGI,DU-145 prostate,11.3 µM
same,GI50,OVCAR-4 ovarian,0.366 µM
same,TGI,OVCAR-4 ovarian,6.13 µM
same,GI50,A498 renal,1.16 µM
same,TGI,A498 renal,4.79 µM
same,GI50,MCF7 breast,1.21 µM
same,TGI,MCF7 breast,3.43 µM
same,GI50,COLO 205 colon,0.752 µM
same,TGI,COLO 205 colon,2.26 µM
same,GI50,BT-549 breast,1.63 µM
same,TGI,BT-549 breast,3.7 µM
same,GI50,HS 578T breast,1.94 µM
same,TGI,HS 578T breast,6.31 µM
same,GI50,TK-10 renal,1.61 µM
same,TGI,TK-10 renal,4.11 µM
same,GI50,RPMI-8226 leukemia,0.288 µM
same,TGI,RPMI-8226 leukemia,1.52 µM
same,GI50,SN12C renal,1.44 µM
same,TGI,SN12C renal,4.36 µM
same,GI50,MOLT-4 leukemia,1.64 µM
same,TGI,MOLT-4 leukemia,4.38 µM
same,GI50,MDA-MB-435,0.799 µM
same,TGI,MDA-MB-435,2.5 µM
same,GI50,NCI-H522 lung,0.706 µM
same,TGI,NCI-H522 lung,3.42 µM
same,GI50,A549 NSCLC,2.91 µM
same,TGI,A549 NSCLC,12.1 µM
same,GI50,SF-539 CNS,1.45 µM
same,TGI,SF-539 CNS,4.64 µM
same,GI50,LOX IMVI melanoma,0.955 µM
same,TGI,LOX IMVI melanoma,2.31 µM
same,GI50,ACHN renal,3.35 µM
same,TGI,ACHN renal,11.4 µM
same,GI50,SK-MEL-2 melanoma,1.2 µM
same,TGI,SK-MEL-2 melanoma,3.12 µM
same,GI50,K-562 leukemia,0.427 µM
same,TGI,K-562 leukemia,4.36 µM
same,GI50,HCT-15 colon,5.21 µM
same,TGI,HCT-15 colon,17.9 µM
same,GI50,KM12 colon,0.823 µM
same,TGI,KM12 colon,2.42 µM
same,GI50,HOP-92 NSCLC,0.175 µM
same,TGI,HOP-92 NSCLC,1.46 µM
same,GI50,NCI-H23 lung,0.731 µM
same,TGI,NCI-H23 lung,4.87 µM
same,GI50,HCC-2998 colon,0.767 µM
same,TGI,HCC-2998 colon,2.24 µM
same,GI50,SK-OV-3 ovarian,1.8 µM
same,TGI,SK-OV-3 ovarian,4.69 µM
same,GI50,SNB-75 CNS,0.624 µM
same,TGI,SNB-75 CNS,3.15 µM
same,GI50,SW-620 colon,1.91 µM
same,TGI,SW-620 colon,7.4 µM
same,GI50,NCI/ADR-RES ovarian,19.5 µM
same,TGI,NCI/ADR-RES ovarian,66.8 µM
same,GI50,M14 melanoma,1.25 µM
same,TGI,M14 melanoma,3.35 µM
same,GI50,HOP-62 NSCLC,2.01 µM
same,TGI,HOP-62 NSCLC,6.13 µM
same,GI50,SK-MEL-5 melanoma,0.538 µM
same,TGI,SK-MEL-5 melanoma,1.55 µM
same,GI50,786-0 renal,2.24 µM
same,TGI,786-0 renal,6.12 µM
same,GI50,UACC-62 melanoma,0.631 µM
same,TGI,UACC-62 melanoma,2.06 µM
same,GI50,NCI-H226 lung,1.3 µM
same,TGI,NCI-H226 lung,7.33 µM
same,GI50,MALME-3M melanoma,0.81 µM
same,TGI,MALME-3M melanoma,2.78 µM
same,GI50,HT29 colon,0.979 µM
same,TGI,HT29 colon,4.59 µM
same,GI50,EKVX NSCLC,2.33 µM
same,TGI,EKVX NSCLC,12.8 µM
same,GI50,OVCAR-3 ovarian,0.766 µM
same,TGI,OVCAR-3 ovarian,2.63 µM
same,GI50,OVCAR-8 ovarian,1.63 µM
same,TGI,OVCAR-8 ovarian,4.4 µM
same,GI50,SR leukemia,0.573 µM
same,TGI,SR leukemia,3.11 µM
same,GI50,U251 CNS,0.923 µM
same,TGI,U251 CNS,3.25 µM
same,GI50,T-47D breast,0.378 µM
same,TGI,T-47D breast,4.36 µM
same,GI50,RXF 393 renal,1.34 µM
same,TGI,RXF 393 renal,3.38 µM
same,GI50,NCI-H460 lung,1.79 µM
same,TGI,NCI-H460 lung,5.8 µM
same,GI50,MDA-MB-231 breast,1.16 µM
same,TGI,MDA-MB-231 breast,3.32 µM
same,GI50,CAKI-1 renal,1.59 µM
same,TGI,CAKI-1 renal,3.54 µM
same,GI50,OVCAR-5 ovarian,2.05 µM
same,TGI,OVCAR-5 ovarian,7.27 µM
same,GI50,PC-3 prostate,1.31 µM
same,TGI,PC-3 prostate,5.51 µM
same,GI50,HL-60(TB) leukemia,0.256 µM
same,TGI,HL-60(TB) leukemia,0.88 µM
same,GI50,SF-268 CNS,1.91 µM
same,TGI,SF-268 CNS,5.5 µM
same,GI50,HCT-116 colon,1.24 µM
same,TGI,HCT-116 colon,3.37 µM
same,GI50,UACC-257 melanoma,0.557 µM
same,TGI,UACC-257 melanoma,3.03 µM
same,GI50,SF-295 CNS,1.73 µM
same,TGI,SF-295 CNS,4.73 µM
same,GI50,IGROV1 ovarian,0.783 µM
same,TGI,IGROV1 ovarian,2.43 µM
same,GI50,SK-MEL-28 melanoma,0.936 µM
same,TGI,SK-MEL-28 melanoma,2.84 µM
same,GI50,SNB-19 CNS,0.865 µM
same,TGI,SNB-19 CNS,3.54 µM
same,GI50,CCRF-CEM leukemia,1.22 µM
same,TGI,CCRF-CEM leukemia,6.18 µM
